Test results as given in PubChem BioAssay AID743430 (The Scripps Research Institute Molecular Screening Center, 2014).
Calls of active or inactive are those of the source. The rule behind the calls is not given here.

Biological target: Sphingosine 1-phosphate receptor 4 (Homo sapiens) (UniProt O95977)
Assay: S1P4 receptor agonist activity, late-stage follow-up, counter-screen for S1PR3 antagonist project, cell-based, FRET, dose response (AID 743430)
Settings: S1P4-expressing cells, FRET reporter, agonist mode

Sequence of Sphingosine 1-phosphate receptor 4 (Homo sapiens) (O95977 whole entry, looked up): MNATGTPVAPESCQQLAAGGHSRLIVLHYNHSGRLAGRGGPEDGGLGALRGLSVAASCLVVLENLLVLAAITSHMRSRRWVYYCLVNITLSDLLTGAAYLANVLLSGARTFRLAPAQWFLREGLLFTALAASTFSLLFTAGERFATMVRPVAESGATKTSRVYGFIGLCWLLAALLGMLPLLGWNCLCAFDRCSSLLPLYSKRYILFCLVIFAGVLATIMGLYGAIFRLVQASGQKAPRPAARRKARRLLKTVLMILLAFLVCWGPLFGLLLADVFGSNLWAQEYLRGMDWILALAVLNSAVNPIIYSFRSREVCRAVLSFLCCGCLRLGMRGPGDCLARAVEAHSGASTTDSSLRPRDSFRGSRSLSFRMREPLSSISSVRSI

Compound | EC50
O=C(NC(c1ccc(Cl)c(Cl)c1)c1nc(-c2ccccc2)no1)c1ccc(Cl)cc1 (configuration not stated) | > 50 µM (inactive)
O=C(NC(c1ccc(Cl)c(Cl)c1)c1nc(-c2ccccc2)no1)c1cccc(Cl)c1 (configuration not stated) | > 50 µM (inactive)
Cc1ccc(C(=O)NC(c2ccccc2)c2nc(-c3ccccc3)no2)cc1 (configuration not stated) | > 50 µM (inactive)
O=C(NC(c1ccc(Cl)cc1)c1nc(-c2cccc(Cl)c2)no1)c1cccc(Cl)c1 (configuration not stated) | > 50 µM (inactive)
O=C(NC(c1ccccc1)c1nc(-c2ccccc2)no1)c1cccc(Cl)c1 (configuration not stated) | > 50 µM (inactive)
O=C(NC(c1nc(-c2ccccc2)no1)C1CCCCC1)c1ccc(Cl)c(Cl)c1 (configuration not stated) | > 50 µM (inactive)
COc1ccc(C(=O)NC(c2ccccc2)c2nc(-c3ccccc3)no2)cc1 (configuration not stated) | > 50 µM (inactive)
O=C(NC(c1ccc(Br)cc1)c1nc(-c2ccccc2)no1)c1ccc(Cl)c(Cl)c1 (configuration not stated) | > 50 µM (inactive)
O=C(NC(c1cccc(Cl)c1)c1nc(-c2ccccc2)no1)c1cccc(Cl)c1 (configuration not stated) | > 50 µM (inactive)
O=C(NC(c1ccc(Cl)cc1)c1nc(-c2ccccc2)no1)c1ccc(Cl)c(Cl)c1 (configuration not stated) | > 50 µM (inactive)
O=C(NC(c1ccccc1)c1nc(-c2ccccc2)no1)c1ccc(Cl)cc1 (configuration not stated) | > 50 µM (inactive)
O=C(NC(Cc1ccccc1)c1nc(-c2ccccc2)no1)c1cccc(Cl)c1 (configuration not stated) | > 50 µM (inactive)
O=C(c1cccc(Cl)c1)N(CCO)C(c1ccc(Cl)c(Cl)c1)c1nc(-c2ccccc2)no1 (configuration not stated) | > 50 µM (inactive)
O=C(NC(c1ccc(Cl)cc1)c1nc(-c2ccccc2)no1)c1cccc(Br)c1 (configuration not stated) | > 50 µM (inactive)
O=C(NC(c1ccc(Cl)c(Cl)c1)c1nc(-c2ccccc2)no1)c1ccccc1 (configuration not stated) | > 50 µM (inactive)
CCc1ccc(C(NC(=O)c2cccc(Cl)c2)c2nc(-c3ccccc3)no2)cc1 (configuration not stated) | > 50 µM (inactive)
O=C(NC(c1ccccc1)c1nc(-c2ccccc2)no1)c1cccc(Cl)n1 (configuration not stated) | > 50 µM (inactive)
O=C(NC(c1ccc(Cl)cc1)c1nc(-c2ccccc2)no1)c1cccc(Cl)c1 (configuration not stated) | > 50 µM (inactive)
O=C(NC(c1ccc(Cl)c(Cl)c1)c1nc(-c2ccccc2)no1)c1ccc(Cl)c(Cl)c1 (configuration not stated) | > 50 µM (inactive)
O=C(NC(c1nc(-c2ccccc2)no1)C1CCOCC1)c1ccc(Cl)c(Cl)c1 (configuration not stated) | > 50 µM (inactive)
O=C(NC(c1ccccc1)c1nc(-c2ccccc2)no1)c1cccc(Br)c1 (configuration not stated) | inactive
N#Cc1ccc(C(=O)NC(c2ccc(Cl)c(Cl)c2)c2nc(-c3ccccc3)no2)cc1 (configuration not stated) | > 50 µM (inactive)
Cc1ccc(C(NC(=O)c2cccc(Cl)c2)c2nc(-c3ccccc3)no2)cc1 (configuration not stated) | > 50 µM (inactive)
O=C(NC(c1cccc(Cl)c1)c1nc(-c2ccccc2)no1)c1ccc(Cl)c(Cl)c1 (configuration not stated) | > 50 µM (inactive)
O=C(NC(c1ccc(Cl)cc1)c1nc(-c2ccccn2)no1)c1cccc(Cl)c1 (configuration not stated) | > 50 µM (inactive)
O=C(NC(c1cccc(Cl)c1)c1nc(-c2ccccc2)no1)c1cc(Cl)cc(Cl)c1 (configuration not stated) | > 50 µM (inactive)
O=C(NC(c1ccc(Cl)cc1)c1nc(-c2ccccc2)no1)c1ccc(Cl)c(Br)c1 (configuration not stated) | > 50 µM (inactive)
